Laboratory results published in patent publication EP4592286A1, “MACROCYCLIC NITROGEN-CONTAINING CROWN ETHER COMPOUND AND USE THEREOF AS PROTEIN KINASE INHIBITOR” (Artivila Biopharma, priority 2022, dated 2024).

Columns and labels:
Type in all cases: biochemical
JAK3 = target: T1, JAK3 (Homo sapiens, UniProt P52333); assay: experiment of inhibiting kinase activity (Caliper mobility shift assay), JAK3; details: for inhibition at 0.01 µM: at 10 nM; for inhibition at 0.01 µM / inhibition at 0.1 µM: read-out: inhibition rate JAK3; for inhibition at 0.1 µM: at 100 nM; for IC50: kinase activity assay, Table 3
T1 sequence (P52333 1-1124): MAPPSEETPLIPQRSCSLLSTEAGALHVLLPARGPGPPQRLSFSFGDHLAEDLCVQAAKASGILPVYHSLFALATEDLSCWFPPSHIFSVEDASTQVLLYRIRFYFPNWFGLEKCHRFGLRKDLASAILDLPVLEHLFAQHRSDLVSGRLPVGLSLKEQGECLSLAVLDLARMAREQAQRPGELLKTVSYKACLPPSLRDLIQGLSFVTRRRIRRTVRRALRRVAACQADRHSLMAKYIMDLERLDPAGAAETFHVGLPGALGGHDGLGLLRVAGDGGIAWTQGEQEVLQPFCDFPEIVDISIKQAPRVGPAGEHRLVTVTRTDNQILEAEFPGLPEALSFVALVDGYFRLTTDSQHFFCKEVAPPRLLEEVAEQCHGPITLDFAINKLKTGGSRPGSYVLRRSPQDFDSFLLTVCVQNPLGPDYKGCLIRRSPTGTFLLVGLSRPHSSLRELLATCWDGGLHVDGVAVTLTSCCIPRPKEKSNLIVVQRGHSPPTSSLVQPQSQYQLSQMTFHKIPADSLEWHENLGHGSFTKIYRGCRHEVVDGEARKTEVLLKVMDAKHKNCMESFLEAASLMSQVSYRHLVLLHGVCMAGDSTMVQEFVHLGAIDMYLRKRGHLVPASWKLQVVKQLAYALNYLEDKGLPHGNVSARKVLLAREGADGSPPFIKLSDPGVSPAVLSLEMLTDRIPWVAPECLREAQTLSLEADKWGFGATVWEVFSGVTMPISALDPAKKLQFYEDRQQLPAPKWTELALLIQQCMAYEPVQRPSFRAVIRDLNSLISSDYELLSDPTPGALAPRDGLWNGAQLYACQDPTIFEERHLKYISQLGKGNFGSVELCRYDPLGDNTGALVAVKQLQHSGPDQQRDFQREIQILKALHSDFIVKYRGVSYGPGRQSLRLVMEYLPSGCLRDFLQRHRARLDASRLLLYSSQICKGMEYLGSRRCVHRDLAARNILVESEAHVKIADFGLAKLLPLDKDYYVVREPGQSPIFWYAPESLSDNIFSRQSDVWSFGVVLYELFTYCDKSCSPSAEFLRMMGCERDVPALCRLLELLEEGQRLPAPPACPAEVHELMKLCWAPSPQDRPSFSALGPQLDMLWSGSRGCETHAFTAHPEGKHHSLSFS
Summary of the method: (§1)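 Replicate wells; top concentration 10 µM, 3-fold steps, 10 points (or 10 nM/100 nM single doses). Enzyme preincubated 10 min RT with compound; ATP/substrate start; stop solution; Caliper conversion read. IC50 by Hill-slope curve fit.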

CDK9 = CDK9 (Homo sapiens, UniProt P50750); assay: experiment of inhibiting kinase activity (Caliper mobility shift assay), CDK9; details: read-out: inhibition rate CDK9
Procedure: (§2) The inhibition rates of tested compounds on JAK1, JAK2, JAK3, TYK2, CDK7, CDK9, EGFR (T790M) and LRRK2 kinases were measured. The test concentrations of the compounds were 10 nM and 100 nM, and the detection was performed by replicate wells. Alternatively, compounds were 3-fold serial diluted from 10 µM for 10 concentrations in replicate wells.
(§3) The inhibitory effects of the compounds on JAK1, JAK2, JAK3, CDK7 and CDK9 kinases were detected by the method of Caliper mobility shift assay. 250 nL of the compound at 100-fold final concentration was transferred to a destination plate 384-well-plate by using a liquid handler Echo 550. A kinase solution at 2.5-fold final concentration was prepared with 1×kinase buffer. 10 µL of the kinase solution with 2.5-fold final concentration was added to compound wells and positive control wells; and 10 µL of 1×kinase buffer was added to negative control wells. The mixture was centrifuged at 1000 rpm for 30 seconds and then incubated at room temperature for 10 minutes. A mixed solution of ATP and kinase substrate at 5/3-fold final concentration was prepared with 1×kinase buffer, and 15 µL of the mixed solution of ATP and substrate at 5/3-fold final concentration was added to start the reaction. The 384-well plate was centrifuged at 1000 rpm for 30 seconds, shaked and mixed evenly, then incubated at room temperature for a corresponding time. 30 µL of stop solution was added to stop the kinase reaction, the mixture was centrifuged at 1000 rpm for 30 seconds, and shaked and mixed evenly. The conversion rate was read by Caliper EZ Reader. The conversion inhibition rate%=(average positive control conversion rate%-sample conversion rate%)/(average positive control conversion rate%-average negative control conversion rate%). Where negative control wells represent the conversion readings of the background well of kinase buffer; and positive control wells represent the conversion readings of wells without compound inhibition. With the log value of concentration as the x axis and the percentage inhibition rate as the y axis, the dose-response curve was fitted by the log (inhibitor) vs. response-variable slope of the analyzing softwar GraphPad Prism 5, and the IC50 values of each compound on enzyme activity were obtained. Calculation formula is as follows: y=Bottom+(Top-Bottom)/(1+10^((LogIC50-x)×hillslope)), where x is logarithm of inhibitor concentration; and Y is % inhibition rate.

JAK2 = JAK2 (Homo sapiens, UniProt O60674); assay: experiment of inhibiting kinase activity (Caliper mobility shift assay), JAK2; details: for inhibition at 0.01 µM: at 10 nM; for inhibition at 0.01 µM / inhibition at 0.1 µM: read-out: inhibition rate JAK2; for inhibition at 0.1 µM: at 100 nM; for IC50: kinase activity assay, Table 3
Summary of the method: as §1

CDK7 = CDK7 (Homo sapiens, UniProt P50613); assay: experiment of inhibiting kinase activity (Caliper mobility shift assay), CDK7; details: for inhibition at 0.1 µM: at 100 nM, read-out: inhibition rate CDK7; for IC50: kinase activity assay, Table 3
Procedure: as §2, §3

TYK2 = TYK2 (Homo sapiens, UniProt P29597); assay: experiment of inhibiting kinase activity, TYK2; details: read-out: inhibition rate TYK2; for inhibition at 0.1 µM: at 100 nM; for inhibition at 0.01 µM: at 10 nM
Procedure: as §2

LRRK2 = LRRK2 (Homo sapiens, UniProt Q5S007); assay: experiment of inhibiting kinase activity, LRRK2; details: for inhibition at 0.01 µM: at 10 nM; for inhibition at 0.01 µM / inhibition at 0.1 µM: read-out: inhibition rate LRRK2; for inhibition at 0.1 µM: at 100 nM; for IC50: kinase activity assay, Table 3
Procedure: as §2

JAK1 = JAK1 (Homo sapiens, UniProt P23458); assay: experiment of inhibiting kinase activity (Caliper mobility shift assay), JAK1; details: for inhibition at 0.1 µM: at 100 nM, read-out: inhibition rate JAK1
Procedure: as §2, §3

Sequence of JAK1 (P23458 whole entry): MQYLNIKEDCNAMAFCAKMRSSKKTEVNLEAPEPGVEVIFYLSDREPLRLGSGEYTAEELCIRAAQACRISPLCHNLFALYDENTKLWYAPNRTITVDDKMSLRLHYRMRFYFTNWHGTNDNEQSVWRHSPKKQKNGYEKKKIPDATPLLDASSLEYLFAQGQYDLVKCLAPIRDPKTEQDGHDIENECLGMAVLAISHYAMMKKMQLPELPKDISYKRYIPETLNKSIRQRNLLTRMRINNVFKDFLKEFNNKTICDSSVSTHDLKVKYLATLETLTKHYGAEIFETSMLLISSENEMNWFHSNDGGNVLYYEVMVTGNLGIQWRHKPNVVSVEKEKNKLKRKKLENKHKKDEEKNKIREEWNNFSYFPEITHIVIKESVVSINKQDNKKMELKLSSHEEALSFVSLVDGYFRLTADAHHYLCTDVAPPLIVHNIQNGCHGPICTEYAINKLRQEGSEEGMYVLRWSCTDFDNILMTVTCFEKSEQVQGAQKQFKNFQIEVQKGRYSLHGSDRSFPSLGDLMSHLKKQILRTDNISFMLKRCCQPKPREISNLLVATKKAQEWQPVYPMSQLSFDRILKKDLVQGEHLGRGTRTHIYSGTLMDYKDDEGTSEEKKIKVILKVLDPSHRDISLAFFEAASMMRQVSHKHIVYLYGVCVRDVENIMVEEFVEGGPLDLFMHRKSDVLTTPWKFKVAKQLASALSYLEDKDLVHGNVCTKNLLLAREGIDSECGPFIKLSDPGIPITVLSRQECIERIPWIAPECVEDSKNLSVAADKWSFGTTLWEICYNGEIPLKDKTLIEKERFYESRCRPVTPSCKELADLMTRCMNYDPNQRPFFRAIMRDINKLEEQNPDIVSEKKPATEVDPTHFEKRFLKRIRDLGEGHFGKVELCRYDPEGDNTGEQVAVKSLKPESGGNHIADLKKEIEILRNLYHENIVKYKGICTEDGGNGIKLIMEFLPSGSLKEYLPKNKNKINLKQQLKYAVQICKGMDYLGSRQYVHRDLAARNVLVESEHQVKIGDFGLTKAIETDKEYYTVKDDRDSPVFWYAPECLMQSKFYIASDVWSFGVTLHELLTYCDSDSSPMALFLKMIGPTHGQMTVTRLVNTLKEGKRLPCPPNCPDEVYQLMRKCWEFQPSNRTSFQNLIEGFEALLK
Sequence of CDK7 (P50613 whole entry, species assumed): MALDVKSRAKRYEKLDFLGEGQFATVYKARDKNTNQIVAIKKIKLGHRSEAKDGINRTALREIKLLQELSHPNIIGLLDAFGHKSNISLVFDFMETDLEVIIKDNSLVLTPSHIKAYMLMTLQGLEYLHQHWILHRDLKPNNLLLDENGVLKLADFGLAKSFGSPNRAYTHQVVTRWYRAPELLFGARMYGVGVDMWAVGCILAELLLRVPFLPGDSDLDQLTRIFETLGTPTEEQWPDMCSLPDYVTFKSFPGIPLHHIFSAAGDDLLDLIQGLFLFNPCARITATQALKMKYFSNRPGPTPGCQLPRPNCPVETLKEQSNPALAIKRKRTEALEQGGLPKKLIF
Sequence of CDK7 (P51946 whole entry partner, species assumed): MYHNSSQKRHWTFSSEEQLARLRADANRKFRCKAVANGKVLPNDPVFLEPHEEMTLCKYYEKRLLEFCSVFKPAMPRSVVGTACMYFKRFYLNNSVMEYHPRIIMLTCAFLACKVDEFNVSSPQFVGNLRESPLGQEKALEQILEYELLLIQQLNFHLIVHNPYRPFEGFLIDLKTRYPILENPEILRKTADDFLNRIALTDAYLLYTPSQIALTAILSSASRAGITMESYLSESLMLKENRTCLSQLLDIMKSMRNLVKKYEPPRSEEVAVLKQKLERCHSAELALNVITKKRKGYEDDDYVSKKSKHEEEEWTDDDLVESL
Sequence of CDK7 (P51948 whole entry partner, species assumed): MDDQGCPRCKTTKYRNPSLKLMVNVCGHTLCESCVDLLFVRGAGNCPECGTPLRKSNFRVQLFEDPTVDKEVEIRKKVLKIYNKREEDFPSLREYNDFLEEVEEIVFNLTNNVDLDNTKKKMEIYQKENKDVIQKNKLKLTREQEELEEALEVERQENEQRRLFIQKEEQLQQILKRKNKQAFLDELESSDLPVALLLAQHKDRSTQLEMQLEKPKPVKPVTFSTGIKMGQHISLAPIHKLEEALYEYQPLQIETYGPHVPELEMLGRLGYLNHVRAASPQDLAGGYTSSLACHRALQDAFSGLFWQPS
Sequence of LRRK2 (Q5S007 whole entry): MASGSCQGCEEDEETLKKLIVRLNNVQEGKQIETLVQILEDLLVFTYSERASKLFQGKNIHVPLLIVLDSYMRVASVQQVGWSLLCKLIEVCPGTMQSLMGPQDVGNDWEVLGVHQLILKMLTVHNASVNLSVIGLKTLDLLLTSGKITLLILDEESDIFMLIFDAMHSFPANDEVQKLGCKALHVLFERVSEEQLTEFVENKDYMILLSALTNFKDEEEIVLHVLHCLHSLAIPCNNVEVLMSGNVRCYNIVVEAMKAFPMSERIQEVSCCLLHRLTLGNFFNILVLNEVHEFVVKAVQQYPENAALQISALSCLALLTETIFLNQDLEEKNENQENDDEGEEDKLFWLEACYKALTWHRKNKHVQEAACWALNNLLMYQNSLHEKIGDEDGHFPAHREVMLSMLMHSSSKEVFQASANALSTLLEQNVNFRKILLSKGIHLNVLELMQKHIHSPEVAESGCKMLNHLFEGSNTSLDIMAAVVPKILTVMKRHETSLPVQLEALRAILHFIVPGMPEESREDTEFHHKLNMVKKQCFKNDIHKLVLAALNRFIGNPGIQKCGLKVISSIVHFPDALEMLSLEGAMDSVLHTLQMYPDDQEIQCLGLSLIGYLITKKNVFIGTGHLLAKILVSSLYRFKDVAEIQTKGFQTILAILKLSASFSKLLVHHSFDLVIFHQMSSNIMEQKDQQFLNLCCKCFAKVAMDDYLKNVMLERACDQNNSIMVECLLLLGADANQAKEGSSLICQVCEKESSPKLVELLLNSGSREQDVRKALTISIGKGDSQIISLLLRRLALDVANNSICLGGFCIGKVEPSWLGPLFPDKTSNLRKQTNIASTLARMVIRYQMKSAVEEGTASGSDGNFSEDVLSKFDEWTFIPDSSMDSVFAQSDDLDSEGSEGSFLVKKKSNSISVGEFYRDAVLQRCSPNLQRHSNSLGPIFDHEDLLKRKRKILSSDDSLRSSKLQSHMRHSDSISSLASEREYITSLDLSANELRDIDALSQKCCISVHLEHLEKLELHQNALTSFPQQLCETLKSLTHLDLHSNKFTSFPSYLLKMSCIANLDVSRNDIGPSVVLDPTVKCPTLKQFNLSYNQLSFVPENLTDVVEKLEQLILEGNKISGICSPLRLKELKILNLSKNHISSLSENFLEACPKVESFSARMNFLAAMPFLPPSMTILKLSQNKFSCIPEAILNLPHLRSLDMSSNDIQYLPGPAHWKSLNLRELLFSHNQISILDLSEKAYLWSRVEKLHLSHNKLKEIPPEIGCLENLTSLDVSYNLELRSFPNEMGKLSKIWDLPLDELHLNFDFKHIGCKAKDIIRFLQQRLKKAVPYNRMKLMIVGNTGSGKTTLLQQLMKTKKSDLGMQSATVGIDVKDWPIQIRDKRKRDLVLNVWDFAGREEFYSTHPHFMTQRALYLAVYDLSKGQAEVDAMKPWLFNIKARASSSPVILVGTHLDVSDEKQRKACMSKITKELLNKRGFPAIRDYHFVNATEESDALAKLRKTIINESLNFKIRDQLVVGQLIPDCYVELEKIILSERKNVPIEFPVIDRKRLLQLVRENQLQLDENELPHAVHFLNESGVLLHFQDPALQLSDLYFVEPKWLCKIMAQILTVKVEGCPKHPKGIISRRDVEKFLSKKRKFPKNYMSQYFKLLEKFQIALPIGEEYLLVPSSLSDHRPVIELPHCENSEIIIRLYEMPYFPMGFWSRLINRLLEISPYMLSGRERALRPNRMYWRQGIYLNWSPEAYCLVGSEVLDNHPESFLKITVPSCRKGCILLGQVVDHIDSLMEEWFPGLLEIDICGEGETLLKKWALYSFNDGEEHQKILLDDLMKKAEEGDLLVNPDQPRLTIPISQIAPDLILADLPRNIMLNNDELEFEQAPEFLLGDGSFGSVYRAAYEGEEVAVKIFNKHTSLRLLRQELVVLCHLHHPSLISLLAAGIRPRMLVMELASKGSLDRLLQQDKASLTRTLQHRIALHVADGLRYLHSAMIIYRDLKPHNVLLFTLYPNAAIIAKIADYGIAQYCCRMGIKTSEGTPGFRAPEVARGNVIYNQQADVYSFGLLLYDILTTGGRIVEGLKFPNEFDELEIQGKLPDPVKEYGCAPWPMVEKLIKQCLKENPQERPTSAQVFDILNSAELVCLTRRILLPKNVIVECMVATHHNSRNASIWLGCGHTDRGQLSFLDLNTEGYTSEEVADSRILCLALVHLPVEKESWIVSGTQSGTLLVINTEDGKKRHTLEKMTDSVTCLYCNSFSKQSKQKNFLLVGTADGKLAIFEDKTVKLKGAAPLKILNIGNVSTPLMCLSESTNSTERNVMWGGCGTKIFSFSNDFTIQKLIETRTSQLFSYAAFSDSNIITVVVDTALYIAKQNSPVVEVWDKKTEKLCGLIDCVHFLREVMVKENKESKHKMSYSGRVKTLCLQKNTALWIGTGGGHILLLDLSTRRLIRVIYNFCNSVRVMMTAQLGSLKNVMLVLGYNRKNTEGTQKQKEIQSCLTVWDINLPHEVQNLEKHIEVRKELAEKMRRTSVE

Structure (SMILES)	inhibition at 0.01 µM (JAK3)	inhibition at 0.1 µM (JAK3)	inhibition at 0.01 µM (CDK9; at 10 nM)	inhibition at 0.1 µM (CDK9; at 100 nM)	inhibition at 0.01 µM (JAK2)	inhibition at 0.1 µM (JAK2)	inhibition at 0.1 µM (CDK7)	inhibition at 0.1 µM (TYK2)	inhibition at 0.01 µM (LRRK2)	inhibition at 0.1 µM (LRRK2)	IC50 (JAK3)	IC50 (JAK2)	inhibition at 0.1 µM (JAK1)	inhibition at 0.01 µM (TYK2)	IC50 (CDK7)	IC50 (LRRK2)	IC50 (JAK1; kinase activity assay, Table 3)
CN1CCOCCOc2ccc(Nc3nc(Nc4cccc(S(=O)(=O)NC(C)(C)C)c4)c4cc[nH]c4n3)cc2OCC1 [Example 19, N-(tert-butyl)-3-((2-((7-methyl-2,3,6,7,8,9-hexahydro-5H-benzo[b][1,4,7]trioxa[10]azacyclododecan-12-yl)amino)-7H-pyrrolo[2,3-d]pyrimidin-4-yl)amino)benzenesulfonamide]		40 to 79%			40 to 79%	> 80%	40 to 79%	25 to 39%	40 to 79%	> 80%		< 50 nM			< 50 nM	< 50 nM	
CN1CCOc2ccc(Nc3ncc(F)c(-c4cnn(C(CC#N)C5CCCC5)c4)n3)cc2OCC1 (centres unmarked) [Example 25]		40 to 79%			40 to 79%	> 80%	40 to 79%	> 80%		40 to 79%	< 50 nM	< 50 nM	40 to 79%	40 to 79%		50 to 200 nM	

Further lines, results first:

inhibition at 0.01 µM (JAK3)	inhibition at 0.1 µM (JAK3)	inhibition at 0.01 µM (CDK9; at 10 nM)	inhibition at 0.1 µM (CDK9; at 100 nM)	inhibition at 0.01 µM (JAK2)	inhibition at 0.1 µM (JAK2)	inhibition at 0.1 µM (CDK7)	inhibition at 0.1 µM (TYK2)	inhibition at 0.01 µM (LRRK2)	inhibition at 0.1 µM (LRRK2)	IC50 (JAK3)	IC50 (JAK2)	inhibition at 0.1 µM (JAK1)	inhibition at 0.01 µM (TYK2)	IC50 (CDK7)	IC50 (LRRK2)	IC50 (JAK1; kinase activity assay, Table 3)	Structure (SMILES)
40 to 79%	> 80%	25 to 39%	40 to 79%	40 to 79%	> 80%	40 to 79%	40 to 79%	40 to 79%	> 80%								Cc1nc2c(F)cc(-c3nc(Nc4ccc5c(c4)OCCOCCN(C)CCO5)nc4[nH]ccc34)cc2n1C(C)C [Example 31, N-(4-(4-fluoro-1-isopropyl-2-methyl-1H-benzo[d]imidazol-6-yl)-7H-pyrrolo[2,3-d]pyrimidin-2-yl)-7-methyl-2,3,6,7,8,9-hexahydro-5H-benzo[b][1,4,7]trioxa[10] azacyclododecan-13-amine]
40 to 79%	> 80%			40 to 79%	> 80%	25 to 39%	> 80%		25 to 39%	< 50 nM	< 50 nM	40 to 79%	40 to 79%				CCS(=O)(=O)N1CC(CC#N)(n2cc(-c3nc(Nc4ccc5c(c4)OCCN(C)CCO5)ncc3F)cn2)C1 [Example 37, 2-(1-(ethylsulfonyl)-3-(4-(5-fluoro-2-((4-methyl-3,4,5,6-tetrahydro-2H-benzo[b] [1,4,7]dioxazolin-9-yl)amino)pyrimidin-4-yl)-1H-pyrazol-1-yl)azetidin-3-yl)acetonitrile]
25 to 39%	> 80%			40 to 79%	> 80%	40 to 79%	40 to 79%	> 80%	> 80%	< 50 nM	< 50 nM	40 to 79%		< 50 nM	< 50 nM	50 to 200 nM	CC(C)S(=O)(=O)c1ccccc1Nc1nc(Nc2ccc3c(c2)OCCN(C)CCO3)nc2[nH]ccc12 [Example 35, N^4-(2-(isopropylsulfonyl)phenyl)-N^2-(4-methyl-3,4,5,6-tetrahydro-2H-benzo[b][1,4, 7]dioxazolin-9-yl)-7H-pyrrolo[2,3-d]pyrimidin-2,4-diamine]
